Results from US4603142A, “Cholesterol lowering method of use” (Wisconsin Alumni Research Foundation, priority 1984, dated 1986).

Experiment: Serum lipids in 3-week-old broiler male chickens fed supplemented corn diet
Assay type: in vivo, chicken
Settings: for Concentration in Serum Chol-LDL, percentage of control / Concentration in Serum Total Cholesterol, percentage of control / Concentration in Serum Chol-LDL / Concentration in Serum HDL-Chol. / Concentration in Serum Total Cholesterol: fed 3 weeks
Excerpt: These responses were attributed to the presence in the small grains of relatively high concentrations of beta-D-glucans and pentosans. A long-standing interest in lipid metabolism prompted us to examine certain lipogenic and cholesterolgenic enzymes in the tissues of these birds. Methods used for handling blood samples, preparing subcellular fractions of liver and assay procedures for beta-hydroxy-beta-methylglutaryl coenzyme A (HMG Co-A) reductase, fatty acid synthetase (FAS), plasma cholesterol and triglycerides and the statistical treatment of the data have been described [Qureshi AA et al. (1980): Regulation of lipid metabolism in chicken livers by dietary cereals, J Nutr 110:388-393].
For large scale preparation of these compounds, 10 grams of the petroleum ether soluble fraction of HPBF were dissolved in 10 ml petroleum ether and applied to a 90×3.5 cm silicic acid column (Bio-Silica, 100-200 mesh). The column was washed with 2,500 ml petroleum ether followed by stepwise elution with increasing amounts of ether in petroleum ether. Fraction 8 of the column corresponded to HPLC fraction 5. A concentration-dependent suppression of HMG Co-A reductase activity and enhancement of FAS activity was noted within this range. Serum total and LDL cholesterol levels also fell in a dose-dependent response. […] In a companion experiment, using the same control birds, the effect of cholesterol inhibitor I at 5 ppm is compared to the effect of the petroleum ether solubles of HPBF at 20% equivalent on weight gain, HMG Co-A reductase and FAS activities, serum cholesterol and serum triglyceride levels (Table 2). […] Serum triglyceride levels reflected the influence of the diet on FAS activity. […] Cholesterol inhibitor I was a more powerful suppressor of LDL cholesterol (Table 2).
^1 Feeding period was 3 weeks; Time of killing was 0800; Data
expressed as mean ± SD; N = 9 chickens per group; HMGCoA reductase =

[1] = 2.5 ppm in corn diet, mean ± SD, N = 9
[2] = 5.0 ppm in corn diet, mean ± SD, N = 9
[3] = 10.0 ppm in corn diet, mean ± SD, N = 9
[4] = 15.0 ppm in corn diet, mean ± SD, N = 9
[5] = 20.0 ppm in corn diet, mean ± SD, N = 9
[6] = corn diet + 5 ppm (Table 2), mean ± SD, N = 9

## CC(C)=CCC/C(C)=C/CC/C(C)=C/CC[C@]1(C)CCc2c(C)c(O)c(C)c(C)c2O1 [Cholesterol inhibitor I, 2,5,7,8-tetramethyl-2 (4,8, 12-trimethyltrideca-3,7, 11-trienyl)chroman-6-ol]
2.5 ppm in corn diet
  Concentration in Serum Chol-LDL, percentage of control: 90 Percentage of respective contr
  Concentration in Serum Total Cholesterol, percentage of control: 94 Percentage of respective contr
[1]
  Concentration in Serum Chol-LDL: 73 ± 5 mg/100 ml
  Concentration in Serum HDL-Chol.: 54 ± 6 mg/100 ml
  Concentration in Serum Total Cholesterol: 152 ± 10 mg/100 ml
2.5 to 20 ppm, Table 1
  Level of cholesterol transported in the high-density lipoprotein fraction (HDL): not influenced
5.0 ppm in corn diet
  Concentration in Serum Chol-LDL, percentage of control: 74 Percentage of respective contr
  Concentration in Serum Total Cholesterol, percentage of control: 89 Percentage of respective contr
[2]
  Concentration in Serum Chol-LDL: 60 ± 4 mg/100 ml
  Concentration in Serum HDL-Chol.: 51 ± 4 mg/100 ml
  Concentration in Serum Total Cholesterol: 144 ± 8 mg/100 ml
10.0 ppm in corn diet
  Concentration in Serum Chol-LDL, percentage of control: 67 Percentage of respective contr
  Concentration in Serum Total Cholesterol, percentage of control: 78 Percentage of respective contr
[3]
  Concentration in Serum Chol-LDL: 54 ± 4 mg/100 ml
  Concentration in Serum HDL-Chol.: 52 ± 5 mg/100 ml
  Concentration in Serum Total Cholesterol: 125 ± 7 mg/100 ml
15.0 ppm in corn diet
  Concentration in Serum Chol-LDL, percentage of control: 64 Percentage of respective contr
  Concentration in Serum Total Cholesterol, percentage of control: 76 Percentage of respective contr
[4]
  Concentration in Serum Chol-LDL: 52 ± 5 mg/100 ml
  Concentration in Serum HDL-Chol.: 50 ± 6 mg/100 ml
  Concentration in Serum Total Cholesterol: 122 ± 6 mg/100 ml
20.0 ppm in corn diet
  Concentration in Serum Chol-LDL, percentage of control: 47 Percentage of respective contr
  Concentration in Serum Total Cholesterol, percentage of control: 65 Percentage of respective contr
[5]
  Concentration in Serum Chol-LDL: 38 ± 5 mg/100 ml
  Concentration in Serum HDL-Chol.: 48 ± 5 mg/100 ml
  Concentration in Serum Total Cholesterol: 105 ± 8 mg/100 ml
[6]
  Serum Cholesterol HDL-Chol.: 48 ± 5 mg/dL
  Serum Cholesterol LDL-Chol.: 38 ± 5 mg/dL
  Serum Cholesterol Total-Chol.: 105 ± 11 mg/dL
  Serum Triglycerides: 174 ± 6 mg/dL
